≈ marks a conversion by molar mass, not a printed value. Entries after “also recorded” stand apart in the source; their conditions may differ. Read-outs that look alike come from different tables or passages of the source.
Key:
[1] = system: oral mucosa cells; assay: Genotoxic effects on oral mucosa cells; format: cell-based, human; conditions: positive control, hydrogen peroxide 0.0005%
Description: The tests were performed according to the recommendations established by the Code of Ethics of the World Medical Association, after approval by the ethics committee of the Centro Universitário de Patos (number: 3621284). Blood samples (types A, B, and O) and smears of oral mucosa were donated by young, healthy adults. First, the oral mucosa cells were collected from the donors, which was done with a cyto-brush (smear collector) in the cheek area, and the material obtained was placed in 5 mL of 0.9% NaCl. As controls, cells treated with hydrogen peroxide −0.0005% (positive control) and untreated cells (negative control) were used. The cells were washed twice with saline and centrifuged for 10 min at 400× g and kept in saline. After the third wash, the cells were exposed (ex vivo) to A2 substance at 50, 100, 500, and 1000 µg/mL concentrations for 30 min. The material was centrifuged and the supernatant was discarded before smear preparation. The cells were homogenized in a vortex and placed on the slides at room temperature for drying for 15 min. Then, they were fixed with methanol: acetic acid (3:1) for 15 min and stained with 2% Giemsa.

[2] = system: Candida albicans; parameters: method as in doi:10.4067/S0717-97072003000400005; conditions: cited from earlier work
[3] = system: K. pneumoniae strains; assay: Minimum inhibitory concentration (MIC), broth microdilution; format: cell-based, Klebsiella pneumoniae
Description: The clinical isolates strains of K. pneumoniae were used in this study belong to the MICOTECA of the Antibacterial and Antifungal Activity Research Laboratory of the Federal University of Paraíba, Brazil, which are: KP-25, KP-26, KP-56, KP-83, KP-87, KP-138, KP-143, KP-166, KP-173, KP-176, KP-260, and KP-326. The American Type Culture Collection strain ATCC-700603 was used as controls. For use in the assays, bacterial suspensions were prepared in 0.9% saline solution, from fresh cultures, and adjusted to the McFarland standard 0.5 scale.
To assess the antibacterial activity of substances A1 and A2, the minimum inhibitory concentration against K. pneumoniae strains was determined. The substances were solubilized in dimethyl sulfoxide (DMSO) at 5% and Tween-80 at 2%, to obtain emulsions in the concentrations necessary for use in the tests. The MIC determination was performed using the broth microdilution technique in a 96-well plate to obtain different concentrations of A1 and A2 [35]. In parallel, controls for sterility, cell viability, and interference of the vehicles used in the preparation of substance emulsions (DMSO and Tween-80) were also performed. MIC is defined as the lowest concentration capable of causing complete inhibition of bacterial growth after 24 h at 35 ± 2 °C.

In the case of `OO` [PC-H2O2, hydrogen peroxide, reference compound], the Binucleation [1] is reported as 1.00%, the Karyolysis [1] is reported as 7.00% and the Karyorrhexis [1] is reported as 10.75%. For the same compound, the Micronucleus [1] was 6.50% and the Normal [1] was 77.75%.

For `CC(=O)Nc1ccccc1O` [N-(2-hydroxyphenyl) acetamide], the “antimicrobial activity against Candida albicans” value [2] is listed as “did not have the ability to inhibit fungal growth; also recorded: absence of activity”.

In the case of `O=C(CCl)Nc1ccccc1O` [2-chloro-N-(2-hydroxyphenyl) acetamide], the “C. albicans strains inhibited” value [2] is listed as 96.6%.

For `CC(=O)Nc1ccc(F)c([N+](=O)[O-])c1` [A1, N-(4-fluoro-3-nitrophenyl)acetamide], the melting point was 142 to 144 °C, the MIC ([3]; Klebsiella pneumoniae, ATCC700603, strain ATCC-700603, 24 h at 35 ± 2 °C, read-out: MIC) was 1020 µg/mL (≈ 5.17 mM) and the MIC ([3]; Klebsiella pneumoniae, 100% of the K. pneumoniae strains used in this study, read-out: MIC) was 1020 µg/mL (≈ 5.17 mM). It also gave an MIC ([3]; Klebsiella pneumoniae, strain KP-138, 24 h at 35 ± 2 °C, read-out: MIC) of 1020 µg/mL (≈ 5.17 mM), an MIC ([3]; strain KP-25, 24 h at 35 ± 2 °C) of 1024 µg/mL (≈ 5.17 mM) and an MIC ([3]; strain KP-26, 24 h at 35 ± 2 °C) of 1024 µg/mL (≈ 5.17 mM). It also gave an MIC ([3]; strain KP-56, 24 h at 35 ± 2 °C) of 1024 µg/mL (≈ 5.17 mM), an MIC ([3]; strain KP-83, 24 h at 35 ± 2 °C) of 1024 µg/mL (≈ 5.17 mM) and an MIC ([3]; strain KP-87, 24 h at 35 ± 2 °C) of 1024 µg/mL (≈ 5.17 mM). For the same compound, the MIC ([3]; strain KP-143, 24 h at 35 ± 2 °C) was 1024 µg/mL (≈ 5.17 mM), the MIC ([3]; strain KP-166, 24 h at 35 ± 2 °C) was 1024 µg/mL (≈ 5.17 mM) and the MIC ([3]; strain KP-173, 24 h at 35 ± 2 °C) was 1024 µg/mL (≈ 5.17 mM). The MIC ([3]; strain KP-176, 24 h at 35 ± 2 °C) was 1024 µg/mL (≈ 5.17 mM), the MIC ([3]; strain KP-260, 24 h at 35 ± 2 °C) was 1024 µg/mL (≈ 5.17 mM) and the MIC ([3]; strain KP-326, 24 h at 35 ± 2 °C) was 1024 µg/mL (≈ 5.17 mM).

— article PMC7504751, “Potential of 2-Chloro-N-(4-fluoro-3-nitrophenyl)acetamide Against Klebsiella pneumoniae and In Vitro Toxicity Analysis” (Molecules, 2020)
